The values that follow come from patent US20060148858A1, “1, 2-Azole derivatives with hypoglycemic and hypolipidemic activity” (priority 2002, published 2006).

One data set concerns the target T1, PPARγ-RXRα heterodimer (Homo sapiens, UniProt P37231).
T1 construct: expressed in transfected cells; host or cells: CHO-K1
T1 sequence (P37231 1-477 isoform P37231-2): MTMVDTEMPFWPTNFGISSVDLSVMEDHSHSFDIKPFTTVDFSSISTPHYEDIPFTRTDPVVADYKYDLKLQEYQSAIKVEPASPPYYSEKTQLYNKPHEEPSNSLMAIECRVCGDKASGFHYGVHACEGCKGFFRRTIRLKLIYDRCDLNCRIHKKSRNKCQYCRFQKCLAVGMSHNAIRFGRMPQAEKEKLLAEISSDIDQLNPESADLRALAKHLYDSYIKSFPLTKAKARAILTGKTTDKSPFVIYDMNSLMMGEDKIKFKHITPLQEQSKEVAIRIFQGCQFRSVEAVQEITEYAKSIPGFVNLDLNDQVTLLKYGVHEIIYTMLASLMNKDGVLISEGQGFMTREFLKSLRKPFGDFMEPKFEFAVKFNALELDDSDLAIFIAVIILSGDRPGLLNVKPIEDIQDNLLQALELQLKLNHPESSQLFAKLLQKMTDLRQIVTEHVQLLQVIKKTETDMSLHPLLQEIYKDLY
T1 sequence (P19793 1-462 partner): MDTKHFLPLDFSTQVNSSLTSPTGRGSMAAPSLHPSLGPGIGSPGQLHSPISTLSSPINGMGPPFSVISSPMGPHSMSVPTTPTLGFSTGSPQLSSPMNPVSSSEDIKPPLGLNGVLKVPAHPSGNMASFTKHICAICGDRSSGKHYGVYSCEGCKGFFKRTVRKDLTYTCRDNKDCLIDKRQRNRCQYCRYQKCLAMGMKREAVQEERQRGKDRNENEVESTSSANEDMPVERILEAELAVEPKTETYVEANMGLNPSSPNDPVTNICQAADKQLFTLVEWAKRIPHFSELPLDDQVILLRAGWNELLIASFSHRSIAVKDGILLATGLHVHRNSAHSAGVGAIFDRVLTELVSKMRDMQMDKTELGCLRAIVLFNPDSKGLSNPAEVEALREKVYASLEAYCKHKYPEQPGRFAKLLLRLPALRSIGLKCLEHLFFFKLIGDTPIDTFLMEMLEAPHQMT
Nature of the data set: PPARγ-RXRα heterodimer ligand activity, luciferase reporter in PPARγ:RXRα:4ERPP/CHO-K1 cells (Test Example 3). Type of data set: cell-based. To be noted: 18-48 hours, concentration for 50% of the maximum fold induction. Put shortly: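 Stable CHO-K1 line co-expressing hPPARγ/RXR with 4ERPP-TK luciferase reporter, 2×10^4 cells per well, treated 18-48 h at 37° C. in HAM F12 with 0.1% fatty acid-free BSA. Luciferase fold induction versus untreated taken as 1; EC50 is concentration giving 50% of maximal fold induction.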

The test system of data set [1] is KKAY mice. As to the kind of experiment: Plasma anti-arteriosclerosis index-enhancing action in mice (Test Example 2). Type of data set: in vivo. To be noted: Mus musculus, po, 96 h, 0.005% in powdery diet, four days, percent increase of (HDL cholesterol/total cholesterol)x100, non-treatment group taken as 100%. As to the method: Test compounds were mixed in a powdery diet (CE-2, Japan Clea) at the concentration of 0.005%, and freely given to KKAY mice (9 to 12 weeks old, 5 mice per group), a model of obese and non-insulin dependent diabetes (type 2 diabetes), for four days. During this period, water was given freely. Blood was sampled from orbital venous plexus and components in plasma separated from blood were determined. Total cholesterol levels were determined by using L type Wako Cholesterol (Wako Pure Chemical Industries, Ltd.). Precipitation reagent for HDL cholesterol (Wako Pure Chemical Industries, Ltd.) was added to a part of the plasma to precipitate non-HDL lipoprotein, and cholesterol (HDL cholesterol) in the resulting supernatant was determined. The plasma anti-arteriosclerosis index [(HDL cholesterol/total cholesterol)×100] was calculated by using these cholesterol levels.
In the Table, “Plasma anti-arteriosclerosis index-enhancing action (%)” represents the percent increase (%) of plasma anti-arteriosclerosis index in the treatment group, when the plasma anti-arteriosclerosis index in the non-treatment group is taken as 100%.

Data set [2] deals with KKAY mice. Nature of the data set: Hypoglycemic and hypolipidemic actions in mice (Test Example 1). Type of data set: in vivo. To be noted: Mus musculus, po, 96 h, 0.005% in powdery diet, four days, non-treated group taken as 100%. In a few lines:
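KKAY mice (9 to 12 weeks old, 5 per group) were fed diet containing 0.005% test compound ad libitum for four days. Plasma glucose and triglycerides from orbital venous blood were measured enzymatically, reported as % decrease relative to untreated group (100%).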

The mark [3] stands for this setting: rate of decrease in blood glucose level, read-out: Hypoglycemic action (%).
Where [4] appears, read: rate of decrease in blood triglyceride level, read-out: Hypolipidemic action (%).

Where two headings read alike, the source gives them in different places.

`CC(C)c1nn(-c2ccc(C(F)(F)F)cn2)cc1CCCOc1cccc(OC(C)(C)C(=O)O)c1` [Example 28, 2-[3-{3-(3-isopropyl-1-[5-(trifluoromethyl)-2-pyridyl]-1H-pyrazol-4-yl}propoxy)phenoxy]-2-methylpropionic acid] came in with a melting point of 101 to 102 °C. Moreover, the EC50 at PPARγ-RXRα heterodimer is 35 nM. Also, the change in vivo at 0.005 % in diet in the data set with KKAY mice [1] was determined as 18%. Also, in the data set with KKAY mice [2] (setting [3]), the inhibition in vivo at 0.005 % in diet was 42%. In addition, the inhibition in vivo at 0.005 % in diet in the data set on KKAY mice [2] (setting [4]) was found to be 56%.
On the same counts, the results for `CCOc1nn(-c2ccc(C(F)(F)F)cn2)cc1CCCOc1cccc(OC(C)(C)C(=O)O)c1` [Example 29, 2-[3-(3-{3-ethoxy-1-[5-(trifluoromethyl)-2-pyridyl]-1H-pyrazol-4-yl}propoxy)phenoxy]-2-methylpropionic acid] are 120 to 121 °C, 160 nM, 23%, 46% and 65%.
On the same counts, the results for `CCCc1nn(-c2ccc(C(F)(F)F)cn2)cc1CCCOc1cccc(OC(C)(C)C(=O)O)c1` [Example 41, 2-methyl-2-[3-(3-{3-propyl-1-[5-(trifluoromethyl)-2-pyridyl]-1H-pyrazol-4-yl}propoxy)phenoxy]propionic acid] are 99 to 100 °C, 77 nM, 12%, 25% and 48%.
In the case of `CCCc1nn(-c2ccc(C(F)(F)F)cn2)cc1CCCOc1c(CC(=O)O)cccc1OC` [Example 259, [3-methoxy-2-(3-{3-propyl-1-[5-(trifluoromethyl)-2-pyridyl]-1H-pyrazol-4-yl}propoxy)phenyl]acetic acid], the melting point lay within 122 to 123 °C. For the same compound, a half-maximal effect at PPARγ-RXRα heterodimer (EC50) was put at 76 nM. Further, in the data set on KKAY mice [1], the change in vivo at 0.005 % in diet came to 25%. Further, the inhibition in vivo at 0.005 % in diet in the data set with KKAY mice [2] (setting [3]) was 34%. The inhibition in vivo at 0.005 % in diet in the data set with KKAY mice [2] (setting [4]) stood at 70%.
Regarding `O=C(O)Cc1ccccc1OCCCc1cn(-c2ccc(C(F)(F)F)cn2)nc1C1CCCCC1` [Example 302, [2-(3-{3-cyclohexyl-1-[5-(trifluoromethyl)-2-pyridinyl]-1H-pyrazol-4-yl}propoxy)phenyl]acetic acid], the melting point lay within 127 to 128 °C. Besides, the midpoint of the response at PPARγ-RXRα heterodimer, the EC50, lay at 37 nM. For the same compound, the change in vivo at 0.005 % in diet in the data set on KKAY mice [1] came out at 24%.
For `Cn1cc(CC(=O)O)c(OCCCc2cn(-c3ccc(C(F)(F)F)cn3)nc2C2CCCCC2)n1` [Example 303, [3-(3-{3-cyclohexyl-1-[5-(trifluoromethyl)-2-pyridinyl]-1H-pyrazol-4-yl}propoxy)-1-methyl-1H-pyrazol-4-yl]acetic acid], in that order: 157 to 158 °C, 52 nM and 14%.
The compound `Cc1cccc(CC(=O)O)c1OCCCc1cn(-c2ccc(C(F)(F)F)cn2)nc1C(C)C` [Example 315, [2-(3-{3-isopropyl-1-[5-(trifluoromethyl)-2-pyridinyl]-1H-pyrazol-4-yl}propoxy)-3-methylphenyl]acetic acid] showed a melting point of 159 to 160 °C. Also, at PPARγ-RXRα heterodimer, the response was half-maximal at 35 nM (EC50). The change in vivo at 0.005 % in diet with KKAY mice [1] was found to be 11%. In addition, the inhibition in vivo at 0.005 % in diet in the data set with KKAY mice [2] (setting [3]) stood at 53%. The inhibition in vivo at 0.005 % in diet in the data set with KKAY mice [2] (setting [4]) stood at 70%.
The compound `COc1cccc(CC(=O)O)c1OCCCc1cn(-c2ccc(C(C)=O)cn2)nc1C(C)C` [Example 332, (2-{3-[1-(5-acetyl-2-pyridinyl)-3-isopropyl-1H-pyrazol-4-yl]propoxy}-3-methoxyphenyl)acetic acid] registered a melting point of 148 to 149 °C. The same compound came in with a concentration giving a half-maximal response (EC50) at PPARγ-RXRα heterodimer of 29 nM. In the data set on KKAY mice [1], the change in vivo at 0.005 % in diet turned out to be 11%.
With `CCC(CC)c1nn(-c2ccc(C(F)(F)F)cn2)cc1CCCOc1nn(CC)cc1CC(=O)O` [Example 333, [1-ethyl-3-(3-{3-(1-ethylpropyl)-1-[5-(trifluoromethyl)-2-pyridinyl]-1H-pyrazol-4-yl}propoxy)-1H-pyrazol-4-yl]acetic acid], the EC50 at PPARγ-RXRα heterodimer is 61 nM. Further, the change in vivo at 0.005 % in diet in the data set on KKAY mice [1] turned out to be 11%.
